From patent publication US20150223452A1, “COMPOSITION COMPRISING A PESTICIDAL TERPENE MIXTURE AND A FUNGICIDE” (priority 2012, published 2015)
Like-named read-outs stand apart in the source and are kept apart here.

What was measured:
Phytophthora infestans = format: in vivo; details: 3 days after inoculation
Venturia inaequalis = assay: Venturia test (apples)/preventive
Sphaerotheca fuliginea = assay: Sphaerotheca test (cucumbers)/preventive; format: in vivo; details: 7 days after inoculation
[1] = tested on: green peach aphid (Myzus persicae); assay: Myzus persicae spray test; format: in vivo; details: 500 g ai/ha; mortality, Chinese cabbage leaf-disks
Protocol: (§1) Solvent: 78.0 parts by weight acetone • 1.5 parts by weight dimethylformamide
(§2) Emulsifier: 0.5 parts by weight alkylarylpolyglycolether
(§3) To produce a suitable preparation of active compound, 1 part by weight of active compound is mixed with the stated amount of solvent and emulsifier, and the concentrate is diluted with emulsifier-containing water to the desired concentration.
Chinese cabbage (Brassica pekinensis) leaf-disks infected with all instars of the green peach aphid (Myzus persicae) are sprayed with a preparation of the active ingredient of the desired concentration.
After the specified period of time, mortality in % is determined. 100% means that all aphids have been killed; 0% means that none of the aphids have been killed. The mortality values determined thus are recalculated using the Colby-formula (see above).

Botrytis cinerea = assay: Botrytis test (beans)/preventive; details: 10 ppm a.i.; size of lesions 2 days after inoculation
Protocol: After the spray coating has dried on, 2 small pieces of agar covered with growth of Botrytis cinerea are placed on each leaf.
2 days after the inoculation, the size of the lesions on the leaves is evaluated.

[2] = tested on: two spotted spidermite (Tetranychus urticae); assay: Tetranychus urticae spray test, OP-resistant; format: in vivo; details: 500 g ai/ha; mortality, French beans
Protocol: as §1, §2, §3
French beans (Phaseolus vulgaris) which are heavily infested with all stages of the two spotted spidermite (Tetranychus urticae), are sprayed with a preparation of the active ingredient of the desired concentration.
After the specified period of time, mortality in % is determined. 100% means that all spider mites have been killed and 0% means that none of the spider mites have been killed. The mortality values determined thus are recalculated using the Colby-formula (see sheet 1).

CO/C=C(/C(=O)OC)c1ccccc1Oc1cc(Oc2ccccc2C#N)ncn1 [Azoxystrobin (F107), azoxystrobin]
Efficacy in % found (Phytophthora infestans; 0.5 ppm a.i.): 30%

O=C(NCCc1ncc(C(F)(F)F)cc1Cl)c1ccccc1C(F)(F)F [F70 fluopyram, fluopyram]
Efficacy in % found (Venturia inaequalis; 4 ppm a.i., first series): 4%

Cn1cc(C(=O)Nc2ccccc2-c2cc(F)c(F)c(F)c2)c(C(F)F)n1 [F72 fluxapyroxad, fluxapyroxad]
Efficacy in % found (Venturia inaequalis; 0.5 ppm a.i., first series): 43%
Efficacy in % found (Sphaerotheca fuliginea; 1 ppm a.i.): 29%

Cc1nn(C)c(F)c1C(=O)Nc1ccccc1C(C)CC(C)C (stereo not drawn) [F84 penflufen, penflufen]
Efficacy in % found (Venturia inaequalis; 2 ppm a.i., first series): 0%

CSC1=N[C@@](C)(c2ccccc2)C(=O)N1Nc1ccccc1 [Fenamidone (F114), fenamidone]
Efficacy in % found (Sphaerotheca fuliginea; 50 ppm a.i.): 20%

N#Cc1c[nH]cc1-c1cccc2c1OC(F)(F)O2 [Fludioxonil (F248), fludioxonil]
Efficacy in % found (Sphaerotheca fuliginea; 50 ppm a.i.): 62%

CC(C)Oc1cccc(NC(=O)c2ccccc2C(F)(F)F)c1 [Flutolanil (F71), flutolanil]
Efficacy in % found (Venturia inaequalis; 100 ppm a.i., second series): 4%

COCC(=O)N(c1c(C)cccc1C)C(C)C(=O)OC (stereo not drawn) [Metalaxyl (F241), metalaxyl]
Efficacy in % found (Phytophthora infestans; 5 ppm a.i.): 5%

COC(=O)N(OC)c1ccccc1COc1ccn(-c2ccc(Cl)cc2)n1 [Pyraclostrobin (F121), pyraclostrobin]
Efficacy in % after 6 d [1]: 70%

CCCN(CC)CC1COC2(CCC(C(C)(C)C)CC2)O1 (stereo not drawn) [Spiroxamine (F46), spiroxamine]
Efficacy in % found (Sphaerotheca fuliginea; 50 ppm a.i.): 19%

fenhexamid [Fenhexamid (F16)]
Efficacy in % found (Botrytis cinerea): 880%

fosetyl-aluminium [Fosetyl-Al (F281)]
Efficacy in % after 6 d [2]: 70%

mancozeb [Mancozeb (F174)]
Efficacy in % found (Phytophthora infestans; 20 ppm a.i.): 45%

metalaxyl-M (mefenoxam) [Mefenoxam (F242)]
Efficacy in % found (Phytophthora infestans; 5 ppm a.i.): 3%
